Publication PMC7007292 (Oncotarget, 2020)
Entries after “also recorded” stand apart in the source; their conditions may differ. Like-named read-outs stand apart in the source and are kept apart here.

Tests used:
AGP-01 cells [1] = assay: Cell invasion assay (ECM coated inserts); assay type: cell-based, human; details: 100 nM, 500 nM, 1 μM, 24 h, legend 8 h
Procedure: Cell migration assays were performed using an IncuCyte® life-cell analysis system (Essen Bioscience, USA). […] Images were captured every 2 h for 48 h and evaluated using the InCucyte® software where the wound width was calculated and expressed as percent relative to the control (0.1% DMSO). Cell invasion was assessed by using the cell invasion assay. A 24-well tissue culture plate (Corning) with cell culture inserts which contained an 8 μm pore size polycarbonate membrane was used. […] After 8 h incubation, cells were removed from the inner surface of the insert using a cotton-tipped swab. […] The number of migrating cells per insert was captured by the Operetta System (Perkin Elmer) and counted automatically.

[2] = tested on: peritoneal metastasis of GC; details: xenograft mouse model; oral and intraperitoneal administration; cited from earlier work
AGP-01 cells [3] = assay: Morphological analysis; assay type: cell-based, human; details: 100 nM, 500 nM, 1 μM, 24 h
[4] = tested on: GC cell lines (AGP-01, ACP-02, ACP-03); assay: Growth inhibition assay, all GC cell lines; assay type: cell-based, human
Procedure: All cell lines were cultured in Dulbecco’s Modified Eagle Medium, high Glucose (4.5 g/L), with Sodium Pyruvate and L-glutamin] (DMEM, Lonza, UK), containing 10% foetal bovine serum (FBS) (Invitrogen, USA), 1% antibiotic with 100 IU/ml Penicillin and 100 ug/ml Streptomycin (Invitrogen, USA). The culture medium was changed 2 to 3 times a week and cells were passaged using trypsin/EDTA (Invitrogen, USA).
Resarzurin was used for growth inhibition assays. Briefly, cells (300/well) were plated in 384-well flat-bottomed plates and cultured for 24 h. […] All the following in vitro experiments were performed on metastatic AGP-01 cells.

AGP-01 cells [5] = assay: Microfilament analysis (cortical actin, confocal); assay type: cell-based, human
Procedure: Between each step described above, cells were washed three times with PBS for 5 min at 37°C. […] Images were capture by a laser confocal microscope at 40× (Zeiss, Germany). Image analysis of actin fibers was performed using Acapella (Perkin Elmer). Nuclei were automatically segmented using DAPI channel. Cells were segmented using both DAPI and Actin channels. Dense actin was defined by thresholding to find pixels that were much brighter than their surrounding in the membrane region. The area of dense actin in the membrane region was calculated and normalized to the cell area. Similarly the actin intensity in the membrane region was measured and normalized to the cell area.

kinase targets = details: cited from earlier work
AGP-01 cells [6] = assay: Growth inhibition assay (resazurin); details: 2D culture, 72 h, value (± SD)
kinases = details: beside BCR-ABL and SRC; cited from earlier work
ACP-02 cells = assay: Growth inhibition assay (resazurin); assay type: cell-based, human; details: 2D culture, 72 h, value (± SD)
ACP-03 cells = assay: Growth inhibition assay (resazurin); assay type: cell-based, human; details: 2D culture, 72 h, value (± SD)
GC patients = details: cited from earlier work; for beneficial effects in clinical trials: NCT00215995, NCT00595985, NCT00725712

Row | Compound | IC50 (AGP-01 cells [6]) [µM] | IC50 (ACP-02 cells; Homo sapiens) [µM] | IC50 (ACP-03 cells; Homo sapiens) [µM] | further results
1 | Cc1nc(Nc2ncc(C(=O)Nc3c(C)cccc3Cl)s2)cc(N2CCN(CCO)CC2)n1 [Dasatinib] | 0.35 | 1.02 |  | cell invasion (AGP-01 cells [1]): significantly inhibited; also recorded: Inhibition of cell invasion and migration; peritoneal metastasis of GC [2]: suppressing peritoneal metastasis of GC; morphology of the cells (AGP-01 cells [3]): morphological changes; IC50 ([4]; 72 h incubation): 1000 nM; cortical actin in the membrane region (AGP-01 cells [5]; confocal imaging, 100 nM, 500 nM, 1 μM, 24 h): significant increase; area of cortical actin (AGP-01 cells [5]; single cells, p-value < 0.01): significantly higher; intensity of cortical actin (AGP-01 cells [5]; single cells, p-value < 0.01): significantly higher; number of targets identified (kinase targets): 72; number of additional kinases identified as targets (kinases): ~40
2 | CO[C@H]1C[C@@H]2CC[C@@H](C)[C@@](O)(O2)C(=O)C(=O)N2CCCC[C@H]2C(=O)O[C@H]([C@H](C)C[C@@H]2CC[C@@H](OCCO)[C@H](OC)C2)CC(=O)[C@H](C)/C=C(\C)[C@@H](O)[C@@H](OC)C(=O)[C@H](C)C[C@H](C)/C=C/C=C/C=C/1C [Everolimus] | > 20 | > 20 | > 20 | 
3 | COc1cc2c(Oc3ccc(NC(=O)C4(C(=O)Nc5ccc(F)cc5)CC4)cc3F)ccnc2cc1OCCCN1CCOCC1 [GSK1363089] |  |  |  | beneficial effects in clinical trials (GC patients): failed to show beneficial effects
4 | C=CCN(/C=C1/C(=O)O[C@H](COC)[C@@]2(C)C1=C(O)C(=O)C1=C2[C@H](OC(C)=O)C[C@]2(C)C(=O)CC[C@@H]12)CC=C [PX-866] | > 20 |  |  | IC50 (ACP-03 cells): > 20 µM; IC50 (ACP-02 cells): > 20 µM
5 | Cc1ccc(Nc2nccc(N(C)c3ccc4c(C)n(C)nc4c3)n2)cc1S(N)(=O)=O [Pazopanib] | > 20 | > 20 | > 20 | 
6 | CC[C@@H]1/C=C(\C)C[C@H](C)C[C@H](OC)[C@H]2O[C@@](O)(C(=O)C(=O)N3CCCC[C@H]3C(=O)O[C@H](/C(C)=C/[C@@H]3CC[C@H](Cl)[C@H](OC)C3)[C@H](C)[C@@H](O)CC1=O)[C@H](C)C[C@@H]2OC [Pimecrolimus] | > 20 | > 20 | > 20 | 
7 | N#CC[C@H](C1CCCC1)n1cc(-c2ncnc3[nH]ccc23)cn1 [Ruxolitinib] | > 20 | > 20 | > 20 | 
8 | CN1CCN(CCOc2cc(OC3CCOCC3)c3c(Nc4c(Cl)ccc5c4OCO5)ncnc3c2)CC1 [Saracatinib] | 2.38 | 5.94 | 2.8 | 
9 | CCN(CC)CCNC(=O)c1c(C)[nH]c(/C=C2\C(=O)Nc3ccc(F)cc32)c1C [Sunitinib] | 1.53 |  | 1.97 | beneficial effects in clinical trials (GC patients): failed to show beneficial effects
10 | COc1cc2nccc(Oc3ccc(NC(=O)Nc4cc(C)on4)c(Cl)c3)c2cc1OC [Tivozanib] | > 20 | > 20 | > 20 | 
11 | COc1cc2c(Nc3ccc(Br)cc3F)ncnc2cc1OCC1CCN(C)CC1 [Vandetanib] | > 20 | > 20 | > 20 | 
12 | CCCS(=O)(=O)Nc1ccc(F)c(C(=O)c2c[nH]c3ncc(-c4ccc(Cl)cc4)cc23)c1F [Vemurafenib] | > 20 | > 20 | > 20 | 
13 | N#CC1(c2ccc(NC(=O)c3cccnc3NCc3ccncc3)cc2)CCCC1 [apatinib] |  |  |  | median OS and progression free survival (GC patients; third line therapy for GC): significant benefit
14 | Cc1ccc(NC(=O)c2ccc(CN3CCN(C)CC3)cc2)cc1Nc1nccc(-c2cccnc2)n1 [imatinib] |  |  |  | antiproliferative effect [4]: no proliferation inhibition was observed
15 | CS(=O)(=O)CCNCc1ccc(-c2ccc3ncnc(Nc4ccc(OCc5cccc(F)c5)c(Cl)c4)c3c2)o1 [lapatinib] |  |  |  | beneficial effects in clinical trials (GC patients): failed to show beneficial effects
16 | Cc1cn(-c2cc(NC(=O)c3ccc(C)c(Nc4nccc(-c5cccnc5)n4)c3)cc(C(F)(F)F)c2)cn1 [nilotinib] |  |  |  | antiproliferative effect ([4]; GC cell lines, 72 h incubation): no proliferation inhibition was observed
17 | ramucirumab: VEGFR2 inhibitor approved as second line treatment of GC |  |  |  | median OS (GC patients; second line, alone or with paclitaxel, local relapsed or metastatic GC): improvement on median OS
